Source: ChEMBL document CHEMBL1132040, “Bioreductively-activated prodrugs for targeting hypoxic tissues: elimination of aspirin from 2-nitroimidazole derivatives” (Bioorg Med Chem Lett, 1999)

Columns and labels:
Type in all cases: ADME
[1] = Reductive elimination of leaving group was determined at pH 7.4; expressed as loss of parent
[2] = Half life period at pH 7.4 was determined
[3] = Half life period at pH 9.1 was determined

SMILES	Activity [1]	T1/2 [2]	T1/2 [3]
Cn1c(CBr)cnc1[N+](=O)[O-]	0.68 µM/J	~ 0.3 ms	
Cn1c(COC(=O)c2ccccc2O)cnc1[N+](=O)[O-]	0.21 µM/J	~ 70 ms	~ 250 ms
CC(=O)Oc1ccccc1C(=O)OCc1cnc([N+](=O)[O-])n1C	0.19 µM/J		~ 30 ms
